Test results published in publication PMC12599236, “Itaconate utilisation by the human pathogen Pseudomonas aeruginosa requires uptake via the IctPQM TRAP transporter” (Biochemical Journal, 2025).

Experiments:
Assay type in all cases: binding
[1] = target: T1, IctP (PA0884) (Pseudomonas aeruginosa, UniProt Q9I561); experiment: intrinsic tryptophan fluorescence titration
T1 construct: SBP domain (pa0884), recombinant from E. coli

[2] = target: T1, IctP (PA0884); experiment: crystal structure ([…] Å); intrinsic tryptophan fluorescence titration; nanoDSF (~[…] °C shift)
[3] = target: T1, IctP (PA0884); experiment: as above; remark: listed apart in the source

T1 sequence (Q9I561 entry or part of it): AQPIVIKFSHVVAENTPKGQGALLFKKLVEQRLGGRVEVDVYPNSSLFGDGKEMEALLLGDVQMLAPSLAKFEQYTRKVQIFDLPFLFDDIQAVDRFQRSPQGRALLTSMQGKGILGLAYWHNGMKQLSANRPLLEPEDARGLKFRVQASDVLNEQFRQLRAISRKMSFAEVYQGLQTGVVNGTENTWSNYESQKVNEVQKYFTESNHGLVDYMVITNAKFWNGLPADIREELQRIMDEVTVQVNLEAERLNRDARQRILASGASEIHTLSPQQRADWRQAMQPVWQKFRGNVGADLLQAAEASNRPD

With O=C(O)C[C@H](O)C(=O)O [L-malate] as the molecule, how does the Kd [1] read?
Its Kd is 16.2 µM.

C=C(CC(=O)O)C(=O)O [itaconate, 2-methylenesuccinate] was tested. Which Kd [2] did it give?
The Kd was 180 µM.

With O=C(O)CCC(=O)O [succinate] as the molecule, how does the Kd [3] read?
Its Kd is 32.6 µM.
